# Reference: the supplement of paper PMC10307832
# Legend:
# Test in all cases: relative viability (nuclei count vs DMSO), 5 days (fraction); higher = more cells survive
# [1] = compound: C1=CC=C(C(=C1)C2=CC=C(C=C2)C3=CSC4=C3C(=C(C(=O)N4)C#N)O)O + Cc1cc(Nc2cc(N3CCN(C)CC3)nc(Sc3ccc(NC(=O)C4CC4)cc3)n2)n[nH]1 [Tozasertib] (partner 0.1 µM)
# Method in brief: (§1)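 Each reported value is a median over duplicate plates. It expresses relative viability: treated-well nuclei count divided by vehicle-well nuclei count. Lung cancer cell lines in 1536-well plates were dosed by pin tool a day after seeding, alone with one drug or with a fixed anchor-drug dose plus five library-drug doses (not always all listed) in √10 steps, and nuclei were counted after 5 days.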
# [2] = compound: CC1=CN2C(=O)C=C(N=C2C(=C1)C(C)NC3=CC=CC=C3)N4CCOCC4 [TGX 221] + CC(=O)Nc1cccc(-n2c(=O)n(C3CC3)c(=O)c3c(Nc4ccc(I)cc4F)n(C)c(=O)c(C)c32)c1 [Trametinib] (partner 0.02 µM)
# Method in brief: as §1
# [3] = compound: CC1=CN2C(=O)C=C(N=C2C(=C1)C(C)NC3=CC=CC=C3)N4CCOCC4 [TGX 221] + Nc1nc2[nH]cc(CCc3ccc(C(=O)N[C@@H](CCC(=O)O)C(=O)O)cc3)c2c(=O)[nH]1 [Pemetrexed] (partner 0.2 µM)
# Method in brief: as §1
# [4] = compound: O=C(CCCCCCNC(=O)c1cnc(N(c2ccccc2)c2ccccc2)nc1)NO [Ricolinostat] + Cc1nc(Nc2ncc(C(=O)Nc3c(C)cccc3Cl)s2)cc(N2CCN(CCO)CC2)n1 [Dasatinib] (partner 0.075 µM)
# Method in brief: as §1
Cell Line,relative viability ([1]; first compound 0.08 µM),relative viability ([1]; first compound 0.253 µM),relative viability ([1]; first compound 0.8 µM),relative viability ([1]; first compound 2.53 µM),relative viability ([1]; first compound 8 µM),relative viability ([2]; first compound 0.08 µM),relative viability ([2]; first compound 0.253 µM),relative viability ([2]; first compound 0.8 µM),relative viability ([2]; first compound 2.53 µM),relative viability ([2]; first compound 8 µM),relative viability ([3]; first compound 0.08 µM),relative viability ([3]; first compound 0.253 µM),relative viability ([3]; first compound 0.8 µM),relative viability ([3]; first compound 2.53 µM),relative viability ([3]; first compound 8 µM),relative viability ([4]; first compound 0.08 µM),relative viability ([4]; first compound 0.253 µM),relative viability ([4]; first compound 0.8 µM),relative viability ([4]; first compound 2.53 µM)
NCI-H1975,0.54,0.742,0.826,1.02,0.651,0.313,0.414,0.356,0.289,0.272,0.306,0.26,0.293,0.297,0.273,0.402,0.354,0.307,0.381
NCI-H1993,0.592,0.524,0.534,0.592,0.571,0.797,0.508,0.526,0.507,0.529,0.567,0.545,0.632,0.604,0.246,–,0.558,0.61,0.671
NCI-H2009,0.789,0.706,0.719,0.73,0.683,0.25,0.196,0.204,0.152,0.173,0.943,1.06,1.08,1.1,0.938,0.231,0.295,0.347,0.365
NCI-H2023,0.257,0.38,0.38,0.476,0.439,0.55,0.397,0.603,0.469,0.35,0.263,0.205,0.223,0.214,0.189,–,0.569,0.535,0.472
NCI-H2085,0.8,0.801,0.874,0.749,0.74,0.505,0.351,0.374,0.286,0.276,0.932,0.759,0.615,0.523,0.422,0.205,0.256,0.18,0.217
NCI-H2087,0.213,0.258,0.225,0.244,0.2,0.168,0.155,0.211,0.207,0.217,0.745,0.637,0.582,0.663,0.672,–,0.903,0.663,0.889
NCI-H2126,0.687,0.956,0.893,0.923,0.809,0.535,0.441,0.568,0.547,0.56,0.693,0.574,0.673,0.615,0.656,–,0.618,0.616,0.492
NCI-H2170,0.71,0.709,0.875,0.721,0.634,0.883,0.877,0.949,0.977,0.892,0.263,0.252,0.213,0.271,0.268,0.537,0.733,0.626,0.666
NCI-H2228,0.288,0.244,0.245,0.297,0.277,0.518,0.526,0.801,0.379,0.489,0.357,0.369,0.356,0.313,0.332,0.432,0.591,0.457,0.382
